Assay results taken from US11053204B2, “Pyrimidinyloxy benzene derivatives as herbicides” (FMC Corporation, priority 2015, dated 2021).

Tests used:
Assay type in all cases: in vivo
[1] = tested on: Italian ryegrass (Lolium multiflorum); experiment: Test A preemergence, visual injury rating; conditions: for Plant response rating, Ryegrass, Italian: 31 g ai/ha, 0 to 100 scale, 0 no effect, 100 complete control; for Ryegrass, Italian plant response rating: 125 g ai/ha, 0 to 100 scale (0 no effect, 100 complete control)
Procedure, shortened: (§1)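 Pre- and postemergence greenhouse screen. Soil: loam + sand. Spray carrier: solvent mixture, non-phytotoxic, with surfactant. Post timing at 1–2 leaves, height 2–10 cm. Readout: visual injury on a 0–100 scale roughly 10 days after application, untreated plants as reference.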

[2] = tested on: barnyardgrass (Echinochloa crus-galli); experiment: Test A preemergence, visual injury rating; conditions: for Plant response rating, Barnyardgrass: 31 g ai/ha, 0 to 100 scale, 0 no effect, 100 complete control; for Barnyardgrass plant response rating: 125 g ai/ha, 0 to 100 scale (0 no effect, 100 complete control)
Procedure, shortened: as §1

kochia (Kochia scoparia) [3] = experiment: Test A preemergence, visual injury rating; conditions: for Plant response rating, Kochia: 31 g ai/ha, 0 to 100 scale, 0 no effect, 100 complete control; for Kochia plant response rating: 125 g ai/ha, 0 to 100 scale (0 no effect, 100 complete control)
Procedure, shortened: as §1

[4] = tested on: giant foxtail (Setaria faberii); experiment: Test A preemergence, visual injury rating; conditions: for Plant response rating, Foxtail, Giant: 31 g ai/ha, 0 to 100 scale, 0 no effect, 100 complete control; for Foxtail, Giant plant response rating: 125 g ai/ha, 0 to 100 scale (0 no effect, 100 complete control)
Procedure, shortened: as §1

[5] = tested on: pigweed (Amaranthus retroflexus); experiment: Test A preemergence, visual injury rating; conditions: for Plant response rating, Pigweed: 31 g ai/ha, 0 to 100 scale, 0 no effect, 100 complete control; for Pigweed plant response rating: 125 g ai/ha, 0 to 100 scale (0 no effect, 100 complete control)
Procedure, shortened: as §1

[6] = tested on: ragweed (common ragweed, Ambrosia elatior); experiment: Test A preemergence, visual injury rating; conditions: for Plant response rating, Ragweed: 31 g ai/ha, 0 to 100 scale, 0 no effect, 100 complete control; for Ragweed plant response rating: 125 g ai/ha, 0 to 100 scale (0 no effect, 100 complete control)
Procedure, shortened: as §1

[7] = tested on: sedge, umbrella (small-flower umbrella sedge, Cyperus difformis); experiment: Test B flooded paddy test, plant response rating; conditions: 250 g ai/ha; Flood; scale of 0 to 100 where 0 is no effect and 100 is complete control; 13 to 15 days
Procedure, shortened: (§2)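 Greenhouse pots flooded to 3 cm above soil at time of treatment received compound via the water, which stayed at that level.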

rice (Oryza sativa) [8] = experiment: Test B flooded paddy test, plant response rating; conditions: 250 g ai/ha; Flood; scale of 0 to 100 where 0 is no effect and 100 is complete control; 13 to 15 days
Procedure, shortened: as §2

[9] = tested on: barnyardgrass (Echinochloa crus-galli); experiment: Test B flooded paddy test, plant response rating; conditions: 250 g ai/ha; Flood; scale of 0 to 100 where 0 is no effect and 100 is complete control; 13 to 15 days
Procedure, shortened: as §2

[10] = tested on: ducksalad (Heteranthera limosa); experiment: Test B flooded paddy test, plant response rating; conditions: 250 g ai/ha; Flood; scale of 0 to 100 where 0 is no effect and 100 is complete control; 13 to 15 days
Procedure, shortened: as §2

[11] = tested on: blackgrass (Alopecurus myosuroides); experiment: Test A postemergence, visual injury rating; conditions: 0 is no effect, 100 is complete control; for Blackgrass plant response rating: 31 g ai/ha, 0 to 100 scale, approximately 10 days; for Blackgrass plant response rating (0 to 100 scale): 125 g ai/ha
Procedure, shortened: as §1

[12] = tested on: galium (catchweed bedstraw, Galium aparine); experiment: Test A postemergence, visual injury rating; conditions: 0 is no effect, 100 is complete control; for Galium plant response rating: 31 g ai/ha, 0 to 100 scale, approximately 10 days; for Galium plant response rating (0 to 100 scale): 125 g ai/ha
Procedure, shortened: as §1

[13] = tested on: Italian ryegrass (Lolium multiflorum); experiment: Test A postemergence, visual injury rating; conditions: 0 is no effect, 100 is complete control; for Ryegrass, Italian plant response rating: 31 g ai/ha, 0 to 100 scale, approximately 10 days; for Ryegrass, Italian plant response rating (0 to 100 scale): 125 g ai/ha
Procedure, shortened: as §1

[14] = tested on: wheat (Triticum aestivum); experiment: Test A postemergence, visual injury rating; conditions: 0 is no effect, 100 is complete control; for Wheat plant response rating: 31 g ai/ha, 0 to 100 scale, approximately 10 days; for Wheat plant response rating (0 to 100 scale): 125 g ai/ha
Procedure, shortened: as §1

[15] = tested on: barnyardgrass (Echinochloa crus-galli); experiment: Test A postemergence, visual injury rating; conditions: 0 is no effect, 100 is complete control; for Barnyardgrass plant response rating: 31 g ai/ha, 0 to 100 scale, approximately 10 days; for Barnyardgrass plant response rating (0 to 100 scale): 125 g ai/ha
Procedure, shortened: as §1

corn (Zea mays) = experiment: Test A postemergence, visual injury rating; conditions: 0 is no effect, 100 is complete control; for Corn plant response rating: 31 g ai/ha, 0 to 100 scale, approximately 10 days; for Corn plant response rating (0 to 100 scale): 125 g ai/ha
Procedure, shortened: as §1

kochia (Kochia scoparia) [16] = experiment: Test A postemergence, visual injury rating; conditions: 0 is no effect, 100 is complete control; for Kochia plant response rating: 31 g ai/ha, 0 to 100 scale, approximately 10 days; for Kochia plant response rating (0 to 100 scale): 125 g ai/ha
Procedure, shortened: as §1

[17] = tested on: giant foxtail (Setaria faberii); experiment: Test A postemergence, visual injury rating; conditions: 0 is no effect, 100 is complete control; for Foxtail, Giant plant response rating: 31 g ai/ha, 0 to 100 scale, approximately 10 days; for Foxtail, Giant plant response rating (0 to 100 scale): 125 g ai/ha
Procedure, shortened: as §1

[18] = tested on: pigweed (Amaranthus retroflexus); experiment: Test A postemergence, visual injury rating; conditions: 0 is no effect, 100 is complete control; for Pigweed plant response rating: 31 g ai/ha, 0 to 100 scale, approximately 10 days; for Pigweed plant response rating (0 to 100 scale): 125 g ai/ha
Procedure, shortened: as §1

[19] = tested on: ragweed (common ragweed, Ambrosia elatior); experiment: Test A postemergence, visual injury rating; conditions: 0 is no effect, 100 is complete control; for Ragweed plant response rating: 31 g ai/ha, 0 to 100 scale, approximately 10 days; for Ragweed plant response rating (0 to 100 scale): 125 g ai/ha
Procedure, shortened: as §1

[20] = tested on: sedge, umbrella (small-flower umbrella sedge Cyperus difformis); experiment: Test C flooded paddy test, plant response rating; conditions: flood, scale 0 to 100
Text: (§3) At the same time, plants selected from these crop and weed species and also chickweed (common chickweed, Stellaria media), buckwheat, wild (wild buckwheat, Polygonum convolvulus), wild mustard (Sinapis arvensis), field poppy (Papaver rhoeas), field violet (Viola arvensis), geranium, cutleaf (cutleaf geranium, Geranium dissectum), Canada thistle (Cirsium arvense), and speedwell (bird's-eye speedwell, Veronica persica), were planted in pots containing Sunshine Redi-Earth® planting medium comprising spaghnum peat moss, vermiculite, starter nutrients and dolomitic limestone and treated with postemergence applications of test chemicals formulated in the same manner. Plants ranged in height from 2 to 18 cm (1- to 4-leaf stage) for postemergence treatments. Treated plants and controls were maintained in a greenhouse for 13 to 15 d, after which time all species were compared to controls and visually evaluated. Plant response ratings, summarized in Table C, are based on a scale of 0 to 100 where 0 is no effect and 100 is complete control. A dash (-) response means no test result.
(§4) Plant species in the flooded paddy test consisted of rice (Oryza sativa), sedge, umbrella (small-flower umbrella sedge Cyperus difformis), ducksalad (Heteranthera limosa), and barnyardgrass (Echinochloa crus-galli) grown to the 2-leaf stage for testing. At time of treatment, test pots were flooded to 3 cm above the soil surface, treated by application of test compounds directly to the paddy water, and then maintained at that water depth for the duration of the test.

rice (Oryza sativa) [21] = experiment: Test C flooded paddy test, plant response rating; conditions: flood, scale 0 to 100
Text: as §3, §4

[22] = tested on: barnyardgrass (Echinochloa crus-galli); experiment: Test C flooded paddy test, plant response rating; conditions: flood, scale 0 to 100
Text: as §3, §4

[23] = tested on: ducksalad (Heteranthera limosa); experiment: Test C flooded paddy test, plant response rating; conditions: flood, scale 0 to 100
Text: as §3, §4

FC(F)(F)CCOCc1c(Br)cccc1Oc1ncc(Cl)cn1 [Compound 66]
Plant response rating, Ryegrass, Italian [1]: 0
Ryegrass, Italian plant response rating [1]: 30
Plant response rating, Barnyardgrass [2]: 90
Barnyardgrass plant response rating [2]: 100
Plant response rating, Kochia (kochia (Kochia scoparia) [3]): 0
Kochia plant response rating (kochia (Kochia scoparia) [3]): 40
Plant response rating, Foxtail, Giant [4]: 70
Foxtail, Giant plant response rating [4]: 100
Plant response rating, Pigweed [5]: 20
Pigweed plant response rating [5]: 100
Plant response rating, Ragweed [6]: 0
Ragweed plant response rating [6]: 100
Plant response rating, Sedge, Umbrella [7]: 95
Plant response rating, Rice (rice (Oryza sativa) [8]): 0
Plant response rating, Barnyardgrass [9]: 30
Plant response rating, Ducksalad [10]: 100
Blackgrass plant response rating [11]: 10
Blackgrass plant response rating (0 to 100 scale) [11]: 100
Galium plant response rating [12]: 30
Galium plant response rating (0 to 100 scale) [12]: 100
Ryegrass, Italian plant response rating [13]: 0
Ryegrass, Italian plant response rating (0 to 100 scale) [13]: 50
Wheat plant response rating [14]: 0
Wheat plant response rating (0 to 100 scale) [14]: 30
Barnyardgrass plant response rating [15]: 40
Barnyardgrass plant response rating (0 to 100 scale) [15]: 100
Corn plant response rating (corn (Zea mays)): 20
Corn plant response rating (0 to 100 scale) (corn (Zea mays)): 70
Kochia plant response rating (kochia (Kochia scoparia) [16]): 20
Kochia plant response rating (0 to 100 scale) (kochia (Kochia scoparia) [16]): 50
Foxtail, Giant plant response rating [17]: 30
Foxtail, Giant plant response rating (0 to 100 scale) [17]: 100
Pigweed plant response rating [18]: 40
Pigweed plant response rating (0 to 100 scale) [18]: 100
Ragweed plant response rating [19]: 0
Ragweed plant response rating (0 to 100 scale) [19]: 20
Sedge, Umbrella plant response rating ([20]; 31 g ai/ha): 40
Sedge, Umbrella plant response rating ([20]; 62 g ai/ha): 75
Sedge, Umbrella plant response rating ([20]; 125 g ai/ha): 85
Sedge, Umbrella plant response rating ([20]; 250 g ai/ha): 95
Rice plant response rating (rice (Oryza sativa) [21]; 31 g ai/ha): 0
Rice plant response rating (rice (Oryza sativa) [21]; 62 g ai/ha): 0
Rice plant response rating (rice (Oryza sativa) [21]; 125 g ai/ha): 0
Rice plant response rating (rice (Oryza sativa) [21]; 250 g ai/ha): 20
Barnyardgrass plant response rating ([22]; 31 g ai/ha): 0
Barnyardgrass plant response rating ([22]; 62 g ai/ha): 0
Barnyardgrass plant response rating ([22]; 125 g ai/ha): 25
Barnyardgrass plant response rating ([22]; 250 g ai/ha): 80
Ducksalad plant response rating ([23]; 31 g ai/ha): 40
Ducksalad plant response rating ([23]; 62 g ai/ha): 80
Ducksalad plant response rating ([23]; 125 g ai/ha): 85
Ducksalad plant response rating ([23]; 250 g ai/ha): 95

FC(F)(F)COCc1c(Br)cccc1Oc1ncc(Cl)cn1 [Compound 62]
Plant response rating, Ryegrass, Italian [1]: 0
Ryegrass, Italian plant response rating [1]: 10
Plant response rating, Barnyardgrass [2]: 30
Barnyardgrass plant response rating [2]: 70
Plant response rating, Kochia (kochia (Kochia scoparia) [3]): 20
Kochia plant response rating (kochia (Kochia scoparia) [3]): 70
Plant response rating, Foxtail, Giant [4]: 30
Foxtail, Giant plant response rating [4]: 100
Plant response rating, Pigweed [5]: 60
Pigweed plant response rating [5]: 90
Plant response rating, Ragweed [6]: 0
Ragweed plant response rating [6]: 0
Plant response rating, Sedge, Umbrella [7]: 90
Plant response rating, Rice (rice (Oryza sativa) [8]): 0
Plant response rating, Barnyardgrass [9]: 40
Plant response rating, Ducksalad [10]: 100
Blackgrass plant response rating [11]: 0
Blackgrass plant response rating (0 to 100 scale) [11]: 40
Galium plant response rating [12]: 30
Galium plant response rating (0 to 100 scale) [12]: 80
Ryegrass, Italian plant response rating [13]: 0
Ryegrass, Italian plant response rating (0 to 100 scale) [13]: 0
Wheat plant response rating [14]: 0
Wheat plant response rating (0 to 100 scale) [14]: 0
Barnyardgrass plant response rating [15]: 20
Barnyardgrass plant response rating (0 to 100 scale) [15]: 40
Corn plant response rating (corn (Zea mays)): 0
Corn plant response rating (0 to 100 scale) (corn (Zea mays)): 30
Kochia plant response rating (kochia (Kochia scoparia) [16]): 60
Kochia plant response rating (0 to 100 scale) (kochia (Kochia scoparia) [16]): 100
Foxtail, Giant plant response rating [17]: 0
Foxtail, Giant plant response rating (0 to 100 scale) [17]: 40
Pigweed plant response rating [18]: 50
Pigweed plant response rating (0 to 100 scale) [18]: 90
Ragweed plant response rating [19]: 0
Ragweed plant response rating (0 to 100 scale) [19]: 0
Sedge, Umbrella plant response rating ([20]; 16 g ai/ha): 0
Sedge, Umbrella plant response rating ([20]; 31 g ai/ha): 0
Sedge, Umbrella plant response rating ([20]; 62 g ai/ha): 60
Sedge, Umbrella plant response rating ([20]; 125 g ai/ha): 65
Rice plant response rating (rice (Oryza sativa) [21]; 16 g ai/ha): 0
Rice plant response rating (rice (Oryza sativa) [21]; 31 g ai/ha): 0
Rice plant response rating (rice (Oryza sativa) [21]; 62 g ai/ha): 0
Rice plant response rating (rice (Oryza sativa) [21]; 125 g ai/ha): 10
Barnyardgrass plant response rating ([22]; 16 g ai/ha): 0
Barnyardgrass plant response rating ([22]; 31 g ai/ha): 0
Barnyardgrass plant response rating ([22]; 62 g ai/ha): 0
Barnyardgrass plant response rating ([22]; 125 g ai/ha): 20
Ducksalad plant response rating ([23]; 16 g ai/ha): 0
Ducksalad plant response rating ([23]; 31 g ai/ha): 0
Ducksalad plant response rating ([23]; 62 g ai/ha): 40
Ducksalad plant response rating ([23]; 125 g ai/ha): 75
